The source of these data is patent US11413321B2, “Pharmaceutical composition for use in increasing hair, modifying scalp or skin, healing a wound, promoting osteogenesis, or modifying hair” (priority 2017, dated 2022).

What all share (assay type): in vivo, Wistar rat
One assay relates to Cxcl12. Kind of assay: Quantitative PCR of dorsal tissues after subcutaneous administration (Cxcl12). The following applies: 20 μL per location into rat dorsal part; vs control without administration; FIG. 15. How it is done: (§1) 2.) C—X—C motif chemokine ligand 12 (Cxcl12), transcript variant 1, Rattus norvegicus: mRNA 1,880 bp NM 022177.3 GI: 7649650 Next, a change in gene expression in tissues was examined. Three regions were set between the head and the tail of the dorsal part of a 12-week-old Wistar rat (male), and each region was divided between the left and the right of the backbone into two regions to set a total of six regions on the dorsal part. Milk or palmitic acid was injected in an amount of 20 μL per location at two locations in the vicinity of the center of each region. The distance between the two locations was 1 cm. The collected tissue fragments were frozen with liquid nitrogen, and stored at −80° C. […] Analysis of gene expression by quantitative PCR was performed in the following manner: Integrated DNA technologies, Inc (Skokie, Ill., USA) was requested to design and synthesize gene-specific primers and probes, and using PrimeTime Gene Expression Master Mix Reagent (Integrated DNA Technologies, Inc, Skokie, Ill., USA) and Rotor-Gene Q PCR Apparatus (QIAGEN GmbH, Hilden, Germany), PCR analysis was performed twice per gene per specimen to analyze the expression level of a target gene. […]

Assay [1] deals with full-thickness skin defect. Put plainly: Wound healing score, circular full-thickness skin defect on the dorsal part. The settings on record: 20 μL administration liquid containing 1 mg of the fatty acid at each of four locations; FIG. 6C. How it is done: Formation of wounds: hair on the dorsal part of a 12-week-old Wistar rat was shaven with hair clippers, and a circular full-thickness skin defect with a diameter of 8 mm was produced on each of the left and right sides of the head and the left and right sides of the tail. The full-thickness skin defect was formed at four locations per body.
Administration of milk: 20 μL of milk was subcutaneously injected at each of four locations, namely upper, lower, left and right, in a place 4 mm away from the peripheral edge of the wound. As the milk, the commercially available bovine milk sterilized by heating (at 130 degrees for 2 seconds and 65 degrees for 30 minutes) as described in Example 1 was used.
Administration of fatty acid: As a fatty acid contained in the milk, sterile purified water (administration liquid) containing palmitic acid, stearic acid, myristic acid, linolenic acid, α-linoleic acid and oleic acid, respectively was administered. Here, the water was heated and administered for the saturated fatty acids, and the water was administered at room temperature for the unsaturated fatty acids. 20 μL of the administration liquid (containing 1 mg of the fatty acid) was subcutaneously administered at each of four locations, namely upper, lower, left and right, in a place 4 mm away from the peripheral edge of the wound.
Score 4: The reduction ratio of the area of the wound site is 70% or more.
Score 3: The reduction ratio of the area of the wound site is 50% or more and less than 70%.
Score 2: The reduction ratio of the area of the wound site is 20% or more and less than 50%.
Score 1: The reduction ratio of the area of the wound site is less than 20%.
The result was given as a ratio obtained by dividing the above score by the score for physiological saline.
Two tubes of 8 mL of commercially available milk sterilized at a low temperature (65 degrees for 30 minutes) were centrifuged by a centrifugal separator (2600 g×6 minutes), 2 mL of one fourth of the supernatant exclusive of a whip portion was collected from each tube, the two collected liquids were combined to obtain 4 mL of a liquid, and 4 mL of the resulting liquid was stirred, and used for experiments (hereinafter, the obtained sample is referred to as a “centrifuged sample”). The obtained centrifuged sample was administered to the wound site at a dosage of 20 μL per location in the same manner as described above. The results are shown in “Centrifuged Sample” in FIG. 6A.
Next, a wound healing-promoting effect of lactoferrin was examined. As lactoferrin, Nice rim essence 62971 (trade name) purchased from Lion Corporation was used and administered at one location in an amount of 20 μg or 60 μg in the same manner as described above. Specifically, the lactoferrin was ground, and then thoroughly dissolved in purified water. The lactoferrin concentration was adjusted so that an injection amount of 20 μL included the above administration amount. The result was given as a value obtained by dividing each of scores after seven days and after ten days by the score for the physiological saline administration group.

A further assay has as its system CD34. Kind of assay: Quantitative PCR of dorsal tissues after subcutaneous administration (CD34). The settings on record: 20 μL per location into rat dorsal part; vs control without administration; FIG. 15. How it is done:
as §1, with “5.) CD34,” for “2.) C—X—C motif chemokine ligand 12 (Cxcl12), transcript variant 1,”, “norvegicus: CD34 molecule (Cd34),” for “norvegicus:”, “1,161” for “1,880”, “001107202.2” for “022177.3”, “169790781” for “7649650”

Turning to `CCCCCCCCCCCCCCCC(=O)O` [palmitic acid], the “expression level of Cxcl12 in tissues” value with Cxcl12 is “greatly increased”. Further, the “wound healing-promoting effect (score divided by the score for physiological saline)” value in assay [1] is “high promoting effect”. In the assay on CD34, the “CD34 gene expression in tissues” value is given as “increase”.
